According to US8592403B2, “Diazepine and diazocane compounds as MC4 agonists” (Pfizer Limited, priority 2008, dated 2013):

Experiments:
MC4 receptor = MC4 receptor (Homo sapiens, UniProt P32245); assay: MC4 EC50 functional potency (protocol E of US2005/0176772 / WO 2005/077935); type: cell-based
Experimental: The compounds of formula (I) of the present invention have utility as MCR4 agonists in the treatment of various disease states.
MC5 and MC4 EC50 activity was determined as described by assay protocols D and E, respectively, in US2005/0176772 (pages 28-30).

MC4 receptor (MC4R) = target: T1, MC4 receptor (MC4R) (Homo sapiens, UniProt P32245); assay: Nle4, D-Phe7-α-MSH inhibition at the MC4 receptor (competition binding, SPA, CHO-CRE MC4R membranes)
T1 construct: expressed in transfected cells; host or cells: CHO-CRE MC4R cells (membranes)
T1 sequence (P32245 whole entry): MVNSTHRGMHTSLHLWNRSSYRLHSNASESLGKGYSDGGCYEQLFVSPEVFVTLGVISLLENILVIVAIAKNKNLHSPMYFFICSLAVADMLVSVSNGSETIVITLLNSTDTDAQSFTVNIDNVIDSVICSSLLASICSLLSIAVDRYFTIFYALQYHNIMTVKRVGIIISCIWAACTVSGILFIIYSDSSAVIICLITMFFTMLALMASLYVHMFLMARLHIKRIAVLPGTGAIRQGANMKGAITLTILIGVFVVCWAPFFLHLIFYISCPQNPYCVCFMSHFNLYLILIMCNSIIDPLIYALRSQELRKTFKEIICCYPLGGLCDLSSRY
Text: Nle4, D-Phe7-α-MSH Inhibition at the MC4 Receptor
Nle4, D-Phe7-α-MSH is a stable analogue of melanocyte-stimulating hormone (MSH), which is an agonist at the MC4 receptor (MC4R). Compounds can be evaluated for their ability to inhibit Nle4, D-Phe7-α-MSH binding to membranes from cells expressing the MC4R using a competition binding assay versus [^125I] Nle4, D-Phe7-α-MSH.
Cells expressing the MC4R were subject to homogenisation and the membrane fragment isolated by differential centrifugation. CHO-CRE MC4R cell membranes were coupled to PVT-PEI-WGA SPA Beads type A for 2 hours, spun at 1000 RPM for 5 min and suspended to a concentration of 300 ug bead/ml (0.15 ug membrane, 15 ug bead per well). Bead/membrane mix was incubated with 0.06 nM [^125I] Nle4, D-Phe7-α-MSH and 11 half-log concentrations of competitor ligand, in duplicate, in a total volume of 50 μl buffer per well (25 mM HEPES, 1 mM MgCl2, 2.5 mM CaCl2, 1% Pluronic F68, 1 complete EDTA protease inhibitor tablet/50 ml pH7). Non-specific binding was determined by the inclusion of 100 nM SHU9119. The reaction was initiated by the addition of bead/membranes and plates were incubated at room temperature for 12 hours (the first hour on a plate shaker), after which the amount of radioactivity present was determined using a Wallac plate counter. Ki values were determined by data analysis using appropriate software.

CYP3A4 = target: T2, CYP3A4 (Homo sapiens, UniProt P08684); assay: High density DDI 3 μM cocktail screen in human liver microsomes, midazolam probe; type: in vitro ADME; conditions: human, liver microsomes, probe midazolam, read-out: % inhibition 3A4 @ 3 μM
T2 construct: utilizes human liver microsomes together with isoform-specific clinical drug probes; from tissue; host or cells: human liver microsomes
T2 sequence (P08684 whole entry, canonical isoform): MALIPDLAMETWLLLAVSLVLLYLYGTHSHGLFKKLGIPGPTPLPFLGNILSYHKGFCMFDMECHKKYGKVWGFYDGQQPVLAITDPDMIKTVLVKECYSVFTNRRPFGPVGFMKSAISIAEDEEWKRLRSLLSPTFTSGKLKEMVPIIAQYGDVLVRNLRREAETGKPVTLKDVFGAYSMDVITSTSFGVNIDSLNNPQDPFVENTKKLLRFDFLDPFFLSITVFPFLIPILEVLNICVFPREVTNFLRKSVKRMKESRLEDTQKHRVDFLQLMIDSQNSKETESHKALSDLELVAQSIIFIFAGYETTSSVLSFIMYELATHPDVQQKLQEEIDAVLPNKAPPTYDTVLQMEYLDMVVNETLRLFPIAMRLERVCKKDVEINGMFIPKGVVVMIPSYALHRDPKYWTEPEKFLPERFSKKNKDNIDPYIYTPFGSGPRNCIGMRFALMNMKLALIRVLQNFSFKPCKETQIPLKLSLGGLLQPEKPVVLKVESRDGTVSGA
How it was run: (§1)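 Pooled human liver microsomes incubated with isoform-specific clinical probe substrates as a cocktail (midazolam for CYP3A4), with or without test compound at 3 μM. Metabolite formation followed over time by LC-MS/MS. Inhibition expressed as a single-point percentage.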

human MC3 receptors = target: T3, human MC3 receptors (Homo sapiens, UniProt P41968); assay: In vitro agonist potency (EC50) at melanocortin receptor type 3, cAMP in recombinant cell line; type: cell-based
T3 construct: stably transfected with full length cDNA encoding human MC1 or MC3 receptors; expressed in transfected cells
T3 sequence (P41968 whole entry): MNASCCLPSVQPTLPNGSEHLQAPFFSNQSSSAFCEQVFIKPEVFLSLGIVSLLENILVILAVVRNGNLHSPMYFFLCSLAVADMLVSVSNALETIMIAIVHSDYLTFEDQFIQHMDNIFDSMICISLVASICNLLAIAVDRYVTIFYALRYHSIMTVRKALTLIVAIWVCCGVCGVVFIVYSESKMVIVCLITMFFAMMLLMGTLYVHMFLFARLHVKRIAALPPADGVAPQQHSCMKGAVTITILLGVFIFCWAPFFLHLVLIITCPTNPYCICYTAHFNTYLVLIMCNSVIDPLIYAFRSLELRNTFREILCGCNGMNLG
Experimental: Measurement of In Vitro Agonist Potency (EC50) of Compounds Against Melanocortin Receptors Type 1 and 3 (MC1 and MC3).
Activation of melanocortin (MC) receptors by agonists results in activation of intracellular adenylate cyclase enzymes that synthesise the second messenger signalling molecule, adenosine 3′,5′-cyclic monophosphate (cAMP). Changes in cAMP levels following treatment of recombinant MC1 and MC3 cell lines with test compound were measured and an MC1 and MC3 potency estimate (EC50) calculated as follows: […]
Human embryonic kidney (HEK) or Chinese hamster ovary cell lines stably transfected with full length cDNA encoding human MC1 or MC3 receptors, respectively, were established using standard molecular biology methods. Test compounds were dissolved in dimethyl sulfoxide (DMSO) at 4 mM. 11 point half log unit increment dilution series of test compound, typically starting at 50 uM were prepared in a buffer comprised of phosphate buffered saline (PBS), 2.5% DMSO and 0.05% pluronic F-127 surfactant. Freshly cultured cells at 80-90% confluence were harvested and re-suspended in Dulbecco's Modified Eagle's Medium (DMEM). Cells (10,000 for MC3, 20,000 for MC1) were added to the test compound dilution series in a 384 well assay plate and incubated for 1 hour at 37° C. The relative cAMP concentration in each well was then measured using a β-galactosidase enzyme fragment complementation method purchased in kit form as the Discoverx cAMP II kit from GE Healthcare/Amersham Biosciences UK. In the case of MC1,3-Isobutyl-1-methylxanthine (IBMX) at a concentration of 750 μM was included in DMEM as the cells were re-suspended for assay. […] Sigmoidal curves were fitted to plots of log10 inhibitor concentration vs percent effect using a custom made software application called SIGHTS and EC50 estimates determined by the software as the concentration of test compound giving an effect half way between the bottom and top asymptotes of the sigmoidal dose response curve. Each experiment included an EC50 determination for alpha melanocyte stimulating hormone, which was used as a standard to track assay consistency and allow fair comparison between EC50 estimates obtained in different experiments.

[1] = In vitro metabolism rate determination, human liver microsome (HLM) assay; type: in vitro ADME; conditions: for microsomal CLint at 1 μM: human, liver microsomes, read-out: HLM: Clint, app; for HLM: Clint, app: human liver microsomes, unit assumed
How it was run: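 Human liver microsomes at 0.5 nmol cytochrome P450/ml with 1 μM substrate, pre-warmed 5 min at 37° C, reaction started with NADP; samples taken 0–60 min and terminated. Substrate loss measured; first-order rate constant from log-linear regression converted to half-life or Clint (μl/min/mg protein).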

MC3 receptor (MC3R) = target: T4, MC3 receptor (MC3R) (Homo sapiens, UniProt P41968); assay: Nle4, D-Phe7-α-MSH inhibition at the MC3 receptor (competition binding, SPA, CHO-CRE MC3R membranes)
T4 construct: expressed in transfected cells; host or cells: CHO-CRE MC3R cells (membranes)
T4 sequence (P41968 whole entry): as above
How it was run: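 Competition binding by SPA used CHO-CRE MC3R membranes on WGA beads with 0.06 nM [125I]Nle4,D-Phe7-α-MSH and 11 half-log competitor concentrations. Buffer was 25 mM HEPES, MgCl2, CaCl2, 1% Pluronic F68, pH7, incubated 12 h at room temperature. Non-specific binding was defined with 100 nM SHU9119, and Ki values were derived.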

cytochrome P450 3A4 = target: T5, cytochrome P450 3A4 (Homo sapiens, UniProt P08684); assay: High density DDI 3 μM cocktail screen in human liver microsomes, midazolam probe; type: in vitro ADME; conditions: 3 µM
T5 construct: utilizes human liver microsomes together with isoform-specific clinical drug probes; from tissue; host or cells: human liver microsomes
T5 sequence (P08684 whole entry, canonical isoform): as the sequence (P08684 whole entry, canonical isoform) above
How it was run: as §1

MC4 receptor, sequence (P32245 whole entry): as the sequence (P32245 whole entry) above

| Structure (SMILES) | EC50 (MC4 receptor) [µM] | Ki (MC4 receptor (MC4R)) [µM] | inhibition at 3 µM (CYP3A4) [%] | EC50 (human MC3 receptors) [µM] | microsomal CLint at 1 μM [1] [µL/min/mg] | Ki (MC3 receptor (MC3R)) [µM] | % inhibition 3A4 @ 3 μM (cytochrome P450 3A4) [%] | HLM: Clint, app [1] [µL/min/mg] |
| --- | --- | --- | --- | --- | --- | --- | --- | --- |
| COC(=O)N1CCN(C(=O)[C@@H]2CN(c3cccnn3)C[C@H]2c2ccc(F)cc2F)CCCC1c1ccccc1 (mixture of isomers) [Example 100] | 0.00716 | 0.189 | 65.5 | 0.436 | 83 | – | – | – |
| COc1ccc([C@@H]2CN(c3ccc(=O)n(C)n3)C[C@H]2C(=O)N2CCC[C@@H](c3ccc(Cl)cc3)N(C(=O)C3CC3)CC2)c(F)c1 [Example 29] | 0.00223 | – | 60.8 | 0.506 | 21.4 | – | – | – |
| CS(=O)(=O)N1CCN(C(=O)[C@@H]2CN(c3ccc(C#N)cn3)C[C@H]2c2ccc(F)cc2F)CCCC1c1ccccc1 (single isomer, unassigned) [Example 39] | 0.038 | – | 87.5 | 0.942 | 177 | – | – | – |
| COC(=O)N1CCN(C(=O)[C@@H]2CN(c3ccc(C#N)nn3)CC2c2ccc(OC)cc2F)CCC[C@H]1c1ccc(Cl)cc1 (stereo partly shown) [Example 89] | 0.0143 | 0.0313 | – | 0.764 | – | 0.402 | – | – |
| COc1ccc([C@@H]2CN(c3ccc(=O)n(C)n3)C[C@H]2C(=O)N2CCC[C@@H](c3ccc(Cl)cc3)N(C(=O)C(C)C)CC2)c(F)c1 [Example 31] | 0.00123 | 0.0282 | 40.8 | 0.412 | 21.8 | – | – | – |
| CS(=O)(=O)N1CCN(C(=O)[C@@H]2CN(c3ccc(C#N)cn3)C[C@H]2c2ccc(F)cc2F)CCCC1c1ccccc1 (single isomer, unassigned) [Example 40] | 0.029 | – | – | 0.607 | – | – | 79.5 | 156 |
| COc1ccc([C@@H]2CN(c3ccc(=O)[nH]n3)C[C@H]2C(=O)N2CCCC(c3ccc(Cl)cc3)N(S(C)(=O)=O)CC2)c(F)c1 (single isomer, unassigned) [Example 114] | 0.0734 | 0.0208 | – | – | – | 1.15 | 27.5 | 16.4 |
| COC(=O)N1CCN(C(=O)[C@@H]2CN(c3ccc(C#N)nn3)CC2c2ccc(OC)cc2F)CCCC1c1ccc(Cl)cc1 (stereo in doubt) [Example 106, methyl 8-(4-chlorophenyl)-4-{[(3S,4S)-4-(2-fluoro-4-methoxyphenyl)-1-(6-cyanopyridazin-3-yl)pyrrolidin-3-yl]carbonyl}-1,4-diazocane-1-carboxylate] | 0.0064 | 0.0285 | 66.5 | – | 38 | 0.25 | – | – |
| COCC(=O)N1CCN(C(=O)[C@@H]2CN(C(C)(C)C)C[C@H]2c2ccc(F)cc2F)CCC[C@H]1c1ccc(Cl)cc1 [Example 9] | 0.0528 | 1.53 | 29.1 | – | 44.7 | 12.6 | – | – |
| COC(=O)N1CCN(C(=O)[C@@H]2CN(c3ccc(C#N)nn3)C[C@H]2c2ccc(Cl)cn2)CCC[C@H]1c1ccc(Cl)cc1 [Example 98, methyl 8S-(4-chlorophenyl)-4-{[(3S,4S)-4-(5-chloropyridin-2-yl)-1-(6-cyanopyridazin-3-yl)pyrrolidin-3-yl]carbonyl}-1,4-diazocane-1-carboxylate] | 0.00526 | 0.052 | 46.9 | – | 13.9 | 0.201 | – | – |
| COc1ccc([C@@H]2CN(c3ccc(C#N)nn3)C[C@H]2C(=O)N2CCCC(c3ccc(Cl)cc3)N(S(C)(=O)=O)CC2)c(F)c1 (mixture of isomers) [Example 105, 6-[(3S,4R)-3-{[5-(4-chlorophenyl)-4-(methylsulfonyl)-1,4-diazocan-1-yl]carbonyl}-4-(2-fluoro-4-methoxyphenyl)pyrrolidin-1-yl]pyridazine-3-carbonitrile] | 0.0361 | 0.0922 | 37.5 | – | 42 | 0.571 | – | – |
| COC(=O)N1CCN(C(=O)[C@@H]2CN(c3cccnn3)C[C@H]2c2ccc(F)cc2F)CCC1c1ccccc1 (mixture of isomers) [Example 49] | 0.0211 | 0.208 | 42.5 | – | 86 | 2.23 | – | – |
| CS(=O)(=O)N1CCN(C(=O)[C@@H]2CN(c3cccnn3)C[C@H]2c2ccc(F)cc2F)CCCC1c1ccc(Cl)cc1 (mixture of isomers) [Example 41] | 0.0251 | – | 88 | 6.67 | 41 | – | – | – |
| COC(=O)N1CCN(C(=O)[C@@H]2CN(c3ccc(C#N)nn3)C[C@H]2c2ccc(OC)cc2F)CCC[C@@H]1c1ccc(Cl)cc1 [Example 88] | 0.00538 | 0.024 | – | 0.148 | – | 0.153 | – | – |
| COC(=O)N1CCN(C(=O)[C@@H]2CN(c3ccc(Cl)nn3)C[C@H]2c2ccc(OC)cc2F)CCCC1c1ccc(Cl)cc1 (mixture of isomers) [Example 107, Methyl 8-(4-chlorophenyl)-4-{[(3S,4R)-1-(6-chloropyridazin-3-yl)-4-(2-fluoro-4-methoxyphenyl)pyrrolidin-3-yl]carbonyl}-1,4-diazocane-1-carboxylate] | 0.0277 | 0.0964 | 55.5 | – | 47 | 0.683 | – | – |
| CC(C)(C)N1C[C@@H](C(=O)N2CCC[C@@H](c3ccc(Cl)cc3)N(C(=O)C3CCCC3)CC2)[C@H](c2ccc(F)cc2F)C1 [Example 17] | 0.0433 | 0.513 | 66.9 | – | 118 | 2.78 | – | – |
| CC(=O)N1CCN(C(=O)[C@@H]2CN(c3ccc4nncn4n3)C[C@H]2c2ccc(Cl)cn2)CCC[C@@H]1c1ccc(Cl)cc1 [Example 5] | 0.0232 | 0.226 | 80.4 | – | 17.4 | 1.68 | – | – |
